Measurements taken from PMC6227840 (Open Medicine, 2018).
Where two headings read alike, the source gives them in different places.

What was measured:
[1] = cited from earlier work
[2] = Population pharmacokinetic; settings: normal renal function
[3] = cited from earlier work; remark: listed apart in the source

central volume of distribution ([2]; base model, n = 32): 7.12 L | Clearance of vancomycin – CL, Bootstrap analysis Estimate ([2]; final model parameter, 200 bootstrap runs): 0.0754 L/h | Central volume of distribution – V1, NONMEM Estimate ([2]; final model): 7.47 L | Central volume of distribution – V1, Bootstrap analysis Estimate ([2]; final model, 200 bootstrap runs): 7.55 L | central volume of distribution (base model, impaired renal function, n = 78): 22.7 L | central volume of distribution, renal impairment group versus normal group (base models, 22.7L vs. 7.12L): 3 times | Clearance of vancomycin – CL, Bootstrap analysis Estimate (final model parameter, impaired renal function, 200 bootstrap runs): 0.281 L/h | Central volume of distribution – V1, NONMEM Estimate (final model, impaired renal function): 29.9 L | Central volume of distribution – V1, Bootstrap analysis Estimate (final model, impaired renal function, 200 bootstrap runs): 30.7 L
SMILES: CN[C@H](CC(C)C)C(=O)N[C@H]1C(=O)N[C@@H](CC(N)=O)C(=O)N[C@H]2C(=O)N[C@H]3C(=O)N[C@H](C(=O)N[C@H](C(=O)O)c4cc(O)cc(O)c4-c4cc3ccc4O)[C@H](O)c3ccc(c(Cl)c3)Oc3cc2cc(c3O[C@@H]2O[C@H](CO)[C@@H](O)[C@H](O)[C@H]2O[C@H]2C[C@](C)(N)[C@H](O)[C@H](C)O2)Oc2ccc(cc2Cl)[C@H]1O [vancomycin, Vancomycin]
apparent volume of distribution ([1]; after intravenous administration, distributed in extracellular space): 0.4 to 1 L/kg | clearance [1]: about 2.64 l/h | interstitial fluid concentration in brain tissue ([3]; healthy adults): 0 to 3.45 mg/L | interstitial fluid concentration in the brain ([3]; patients with meningitis): 6.4 to 11.1 mg/L
